Reference: PubChem BioAssay (NCI)
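Step 1: Grow cells in 96-well plates. Step 2: Expose to compound for 48 hours at 5 concentrations. Step 3: Interpolate endpoints linearly; if unreached, use highest concentration. Here, GI50 denotes the concentration required for 50% inhibition of growth. TGI: concentration producing complete growth inhibition.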

How the values were obtained:
Experiment in all cases: DTP human tumour cell line panel, 48 h
CAKI-1 renal = system: CAKI-1 renal
PC-3 prostate = system: PC-3 prostate
RXF 393 renal = system: RXF 393 renal
SW-620 colon = system: SW-620 colon
OVCAR-5 ovarian = system: OVCAR-5 ovarian
SR leukemia = system: SR leukemia
COLO 205 colon = system: COLO 205 colon
SK-MEL-28 melanoma = system: SK-MEL-28 melanoma
UO-31 renal = system: UO-31 renal
BT-549 breast = system: BT-549 breast
MCF7 breast = system: MCF7 breast
HCT-15 colon = system: HCT-15 colon
MALME-3M melanoma = system: MALME-3M melanoma
OVCAR-8 ovarian = system: OVCAR-8 ovarian
MDA-MB-231 breast = system: MDA-MB-231 breast
HS 578T breast = system: HS 578T breast
SF-295 CNS = system: SF-295 CNS
SK-MEL-2 melanoma = system: SK-MEL-2 melanoma
OVCAR-3 ovarian = system: OVCAR-3 ovarian
NCI-H460 lung = system: NCI-H460 lung
SN12C renal = system: SN12C renal
KM12 colon = system: KM12 colon
HL-60(TB) leukemia = system: HL-60(TB) leukemia
A498 renal = system: A498 renal
SNB-75 CNS = system: SNB-75 CNS
A549 NSCLC = system: A549 NSCLC

Structure (SMILES): COc1cc2c3c(n(CCCNC4CCCC4)c(=O)c2cc1OC)-c1cc2c(cc1C3=O)OCO2
- GI50 (CAKI-1 renal): 1.24 µM
- TGI (CAKI-1 renal): 2.5 µM
- GI50 (PC-3 prostate): 10.3 µM
- TGI (PC-3 prostate): 31.9 µM
- GI50 (RXF 393 renal): 3.83 µM
- TGI (RXF 393 renal): 15.5 µM
- GI50 (SW-620 colon): 1.09 µM
- TGI (SW-620 colon): 2.44 µM
- GI50 (OVCAR-5 ovarian): 2.46 µM
- TGI (OVCAR-5 ovarian): 5.56 µM
- GI50 (SR leukemia): 0.133 µM
- TGI (SR leukemia): 0.583 µM
- GI50 (COLO 205 colon): 1.35 µM
- TGI (COLO 205 colon): 15.4 µM
- GI50 (SK-MEL-28 melanoma): 15.8 µM
- TGI (SK-MEL-28 melanoma): 30.6 µM
- GI50 (UO-31 renal): 1.66 µM
- TGI (UO-31 renal): 4.21 µM
- GI50 (BT-549 breast): 13.8 µM
- TGI (BT-549 breast): 27.3 µM
- GI50 (MCF7 breast): 0.673 µM
- TGI (MCF7 breast): 2.32 µM
- GI50 (HCT-15 colon): 1.59 µM
- TGI (HCT-15 colon): 3.43 µM
- GI50 (MALME-3M melanoma): 1.69 µM
- TGI (MALME-3M melanoma): 3.27 µM
- GI50 (OVCAR-8 ovarian): 1.45 µM
- TGI (OVCAR-8 ovarian): 2.98 µM
- GI50 (MDA-MB-231 breast): 1.57 µM
- TGI (MDA-MB-231 breast): 3.29 µM
- GI50 (HS 578T breast): 19.9 µM
- TGI (HS 578T breast): 81 µM
- GI50 (SF-295 CNS): 0.628 µM
- TGI (SF-295 CNS): 21.7 µM
- GI50 (SK-MEL-2 melanoma): 19 µM
- TGI (SK-MEL-2 melanoma): 35.6 µM
- GI50 (OVCAR-3 ovarian): 1.64 µM
- TGI (OVCAR-3 ovarian): 3.31 µM
- GI50 (NCI-H460 lung): 0.446 µM
- TGI (NCI-H460 lung): 1.98 µM
- GI50 (SN12C renal): 1.8 µM
- TGI (SN12C renal): 4.3 µM
- GI50 (KM12 colon): 11 µM
- TGI (KM12 colon): 25.2 µM
- GI50 (HL-60(TB) leukemia): 1.02 µM
- TGI (HL-60(TB) leukemia): 2.66 µM
- GI50 (A498 renal): 15.9 µM
- TGI (A498 renal): 29.7 µM
- GI50 (SNB-75 CNS): 13.8 µM
- TGI (SNB-75 CNS): 27.3 µM
- GI50 (A549 NSCLC): 7.46 µM
- TGI (A549 NSCLC): 25.8 µM
